Test system: 3T3 proliferation
Assay: IGF-1-induced DNA synthesis (3H-thymidine incorporation)
Format: cell-based
Settings: Rattus norvegicus; activated overnight with 50 ng/mL IGF-1; read-out: inhibited 3T3 proliferation (IC50, thymidine incorporation)
Experimental: Human tumor cell lines or a rat fibroblast cell line are plated out in flat-well plates in complete medium and allowed to adhere overnight. The cells are then starved in medium containing 0.1% bovine serum albumin (BSA) overnight, pre-incubated for 1 h with or without dilutions of compound, then activated overnight with 50 ng/mL insulin-like growth factor (IGF-1). Proliferation is determined by the level of ^3H-thymidine incorporation into DNA. IC50's are determined by comparing the level of thymidine incorporation found in the presence of compound compared to controls.

Row | Structure (SMILES) | IC50
1 | COc1cc(Nc2nccc(Nc3cc(-c4ccccc4)on3)n2)cc(OC)c1OC [Example 15, N^2-(3,4,5-Trimethoxyphenyl)-N^4-(5-phenylisoxazol-3-yl)-2,4-pyrimidinediamine] | < 150 nM
2 | COc1cc(Nc2nccc(Nc3cc(-c4ccccc4)on3)n2)ccc1N1CCOCC1 [Example 14, N^2-(3-Methoxy-4-morpholin-4-yl-phenyl)-N^4-(5-phenyl-isoxazol-3-yl)-pyrimidine-2,4-diamine] | < 150 nM
3 | COc1cc(Nc2nccc(Nc3cc(C4CCCCC4)no3)n2)cc(OC)c1OC [Example 17, N^2-(3,4,5-Trimethoxyphenyl)-N^4-(3-cyclohexylisoxazol-5-yl)-2,4-pyrimidinediamine] | < 150 nM
4 | COc1cc(C)c(Nc2nccc(Nc3cc(C45CC6CC(CC(C6)C4)C5)on3)n2)cc1OC [Example 18, N^2-(4,5-Dimethoxy-2-methylphenyl)-N^4-(5-adamantylisoxazol-3-yl)-2,4-pyrimidinediamine] | < 150 nM
